In PubChem BioAssay (NCI):
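These data come from cells grown in 96-well plates and exposed to compound for 48 hours at five concentrations. TGI: total growth inhibition.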

Assays:
Assay in all cases: growth of human tumour cells (NCI), 48 h
[1] = test system: PC-3 prostate
[2] = test system: KM12 colon
[3] = test system: SF-539 CNS
[4] = test system: HCT-15 colon
[5] = test system: COLO 205 colon
[6] = test system: NCI/ADR-RES ovarian
[7] = test system: K-562 leukemia
[8] = test system: NCI-H226 lung
[9] = test system: OVCAR-3 ovarian
[10] = test system: MCF7 breast
[11] = test system: HCT-116 colon
[12] = test system: HOP-62 NSCLC
[13] = test system: UACC-62 melanoma
[14] = test system: CCRF-CEM leukemia
[15] = test system: OVCAR-4 ovarian
[16] = test system: IGROV1 ovarian
[17] = test system: NCI-H23 lung
[18] = test system: OVCAR-8 ovarian
[19] = test system: SK-OV-3 ovarian
[20] = test system: SK-MEL-28 melanoma
[21] = test system: ACHN renal
[22] = test system: M14 melanoma
[23] = test system: SR leukemia
[24] = test system: SNB-75 CNS
[25] = test system: HS 578T breast
[26] = test system: U251 CNS
[27] = test system: LOX IMVI melanoma
[28] = test system: MDA-N
[29] = test system: EKVX NSCLC
[30] = test system: MDA-MB-231 breast
[31] = test system: TK-10 renal
[32] = test system: SF-295 CNS
[33] = test system: 786-0 renal
[34] = test system: OVCAR-5 ovarian
[35] = test system: SW-620 colon
[36] = test system: HL-60(TB) leukemia
[37] = test system: BT-549 breast
[38] = test system: DU-145 prostate
[39] = test system: A498 renal
[40] = test system: RPMI-8226 leukemia
[41] = test system: SK-MEL-2 melanoma
[42] = test system: SN12C renal
[43] = test system: UO-31 renal
[44] = test system: SK-MEL-5 melanoma
[45] = test system: T-47D breast
[46] = test system: SNB-19 CNS
[47] = test system: RXF 393 renal
[48] = test system: HCC-2998 colon
[49] = test system: A549 NSCLC
[50] = test system: MOLT-4 leukemia
[51] = test system: UACC-257 melanoma
[52] = test system: HT29 colon
[53] = test system: MDA-MB-435
[54] = test system: CAKI-1 renal
[55] = test system: NCI-H460 lung
[56] = test system: SF-268 CNS
[57] = test system: MALME-3M melanoma
[58] = test system: NCI-H522 lung
[59] = test system: HOP-92 NSCLC

SMILES: C[C@]12CCC3c4ccc(O)cc4CC[C@H]3C1CC(=O)N(CCN1CCCC1)C2=O (some centres undefined)
- TGI [1]: > 10 µM
- TGI [2]: > 10 µM
- TGI [3]: > 10 µM
- TGI [4]: > 10 µM
- TGI [5]: > 10 µM
- TGI [6]: > 10 µM
- TGI [7]: > 10 µM
- TGI [8]: > 10 µM
- TGI [9]: > 10 µM
- TGI [10]: > 10 µM
- TGI [11]: > 10 µM
- TGI [12]: > 10 µM
- TGI [13]: > 10 µM
- TGI [14]: > 10 µM
- TGI [15]: > 10 µM
- TGI [16]: > 10 µM
- TGI [17]: > 10 µM
- TGI [18]: > 10 µM
- TGI [19]: > 10 µM
- TGI [20]: > 10 µM
- TGI [21]: > 10 µM
- TGI [22]: > 10 µM
- TGI [23]: > 10 µM
- TGI [24]: > 10 µM
- TGI [25]: > 10 µM
- TGI [26]: > 10 µM
- TGI [27]: > 10 µM
- TGI [28]: > 10 µM
- TGI [29]: > 10 µM
- TGI [30]: > 10 µM
- TGI [31]: > 10 µM
- TGI [32]: > 10 µM
- TGI [33]: > 10 µM
- TGI [34]: > 10 µM
- TGI [35]: > 10 µM
- TGI [36]: > 10 µM
- TGI [37]: > 10 µM
- TGI [38]: > 10 µM
- TGI [39]: > 10 µM
- TGI [40]: > 10 µM
- TGI [41]: > 10 µM
- TGI [42]: > 10 µM
- TGI [43]: > 10 µM
- TGI [44]: > 10 µM
- TGI [45]: > 10 µM
- TGI [46]: > 10 µM
- TGI [47]: > 10 µM
- TGI [48]: > 10 µM
- TGI [49]: > 10 µM
- TGI [50]: > 10 µM
- TGI [51]: > 10 µM
- TGI [52]: > 10 µM
- TGI [53]: > 10 µM
- TGI [54]: > 10 µM
- TGI [55]: > 10 µM
- TGI [56]: > 10 µM
- TGI [57]: > 10 µM

SMILES: CC12CCC(C(=O)n3c1nc1ccccc13)C(C)(C)O2 (centres undefined)
- TGI [1]: > 100 µM
- TGI [2]: > 100 µM
- TGI [3]: > 100 µM
- TGI [4]: > 100 µM
- TGI [5]: > 100 µM
- TGI [6]: > 100 µM
- TGI [7]: > 100 µM
- TGI [8]: > 100 µM
- TGI [9]: > 100 µM
- TGI [10]: > 100 µM
- TGI [11]: > 100 µM
- TGI [12]: > 100 µM
- TGI [13]: > 100 µM
- TGI [14]: > 100 µM
- TGI [15]: > 100 µM
- TGI [16]: > 100 µM
- TGI [17]: > 100 µM
- TGI [58]: > 100 µM
- TGI [18]: > 100 µM
- TGI [19]: > 100 µM
- TGI [20]: > 100 µM
- TGI [21]: > 100 µM
- TGI [22]: > 100 µM
- TGI [23]: > 100 µM
- TGI [24]: > 100 µM
- TGI [25]: > 100 µM
- TGI [26]: > 100 µM
- TGI [27]: > 100 µM
- TGI [28]: > 100 µM
- TGI [29]: > 100 µM
- TGI [30]: > 100 µM
- TGI [31]: > 100 µM
- TGI [32]: > 100 µM
- TGI [33]: > 100 µM
- TGI [34]: > 100 µM
- TGI [35]: > 100 µM
- TGI [36]: > 100 µM
- TGI [37]: > 100 µM
- TGI [38]: > 100 µM
- TGI [40]: > 100 µM
- TGI [41]: > 100 µM
- TGI [59]: > 100 µM
- TGI [42]: > 100 µM
- TGI [43]: > 100 µM
- TGI [44]: > 100 µM
- TGI [45]: > 100 µM
- TGI [46]: > 100 µM
- TGI [47]: > 100 µM
- TGI [48]: > 100 µM
- TGI [49]: > 100 µM
- TGI [50]: > 100 µM
- TGI [51]: > 100 µM
- TGI [52]: > 100 µM
- TGI [53]: > 100 µM
- TGI [54]: > 100 µM
- TGI [56]: > 100 µM
- TGI [57]: > 100 µM
